Publication PMC5011342, “A high throughput drug screening assay to identify compounds that promote oligodendrocyte differentiation using acutely dissociated and purified oligodendrocyte precursor cells” (BMC Research Notes, 2016)
Read-outs that look alike come from different tables or passages of the source.

Columns and labels:
[1] = system: acutely dissociated and purified rat OPCs; assay: Acute OL differentiation assay (MBP expression/cell, immunofluorescent image quantification); type: cell-based; conditions: Rattus norvegicus; for activation at 0.4 µM: 0.4 uM test compound, read-out: OL differentiation, 0.4 uM (% Quet)
Procedure, shortened: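 Oligodendrocyte precursor cells were enriched from P6-P7 Sprague–Dawley rat brains by immunopanning (RAN-2 and GalC depletion, O4 selection), plated at 5000 cells/well in serum-free, mitogen-free differentiation media on PDL/laminin 96-well view plates, centrifuged at 200×g, and pre-incubated 1–2 h before test compounds were added in quadruplicate. On DIV4, cells were fixed, stained for MBP and DAPI, imaged automatically, and MBP expression per cell was quantified.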

expanded OPCs = assay: cells; conditions: for viability at 0.1 µM / viability at 1 µM / viability at 10 µM: Rattus norvegicus, 72 h; for 0.1 µM (% DMSO) / 1 µM (% DMSO) / 10 µM (% DMSO): alamarBlue viability of expanded OPCs, relative to DMSO control; for 0.1 µM (% DMSO): compound at 0.1 µM; for 1 µM (% DMSO): compound at 1 µM; for 10 µM (% DMSO): compound at 10 µM
Procedure, shortened: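 Expanded OPCs seeded at 10,000 cells/well in differentiation media, then exposed to NCC library compounds at 10, 1 and 0.1 µM (quadruplicate, 0.1% DMSO) for three days. Viability read as alamarBlue fluorescence (560/590 nm) after 4 h at 37 °C; tunicamycin 5 ng/ml served as toxicity control.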

[2] = test compound at 2 uM, NCC library screen, sheet "All OLga data", relative to quetiapine, read-out: 2 uM (% Quet)
[3] = test compound at 10 uM, NCC library screen, sheet "All OLga data", relative to quetiapine, read-out: 10 uM (% Quet)
[4] = read-out: 0.1 µM (% DMSO), alamarBlue viability, NCC library compound at 0.1 µM, sheet "All Tox data"
[5] = read-out: 1 µM (% DMSO), alamarBlue viability, NCC library compound at 1 µM, sheet "All Tox data"
[6] = read-out: 10 µM (% DMSO), alamarBlue viability, NCC library compound at 10 µM, sheet "All Tox data"
[7] = test compound at 2 uM, MBP expression relative to quetiapine, NCC library screen, sheet "All OLga data", read-out: 2 uM (% Quet)
[8] = test compound at 10 uM, MBP expression relative to quetiapine, NCC library screen, sheet "All OLga data", read-out: 10 uM (% Quet)
[9] = relative to quetiapine, sheet "All OLga data"
[10] = 2 uM test compound, relative to quetiapine, sheet "All OLga data", read-out: OL differentiation, 2 uM (% Quet)
[11] = read-out: 0.1 µM (% DMSO), alamarBlue viability of expanded OPCs, compound at 0.1 µM, sheet All Tox data
[12] = read-out: 1 µM (% DMSO), alamarBlue viability of expanded OPCs, compound at 1 µM, sheet All Tox data
[13] = read-out: 10 µM (% DMSO), alamarBlue viability of expanded OPCs, compound at 10 µM, sheet All Tox data
[14] = 10 uM test compound, relative to quetiapine, sheet "All OLga data", read-out: OL differentiation, 10 uM (% Quet)

SMILES | activation at 2 µM [1, 2] | activation at 10 µM [1, 3] | viability at 0.1 µM (expanded OPCs; [4]) | viability at 1 µM (expanded OPCs; [5]) | viability at 10 µM (expanded OPCs; [6]) | 0.1 µM (% DMSO) (expanded OPCs) | 1 µM (% DMSO) (expanded OPCs) | 10 µM (% DMSO) (expanded OPCs) | activation at 2 µM [1, 10] | viability at 0.1 µM (expanded OPCs; [11]) | viability at 1 µM (expanded OPCs; [12]) | viability at 10 µM (expanded OPCs; [13]) | other results
CN(C)CCOC(c1ccc(Cl)cc1)c1ccccn1 (centres unmarked) [Carbinoxamine] | 7.4% | -28.8% | 92.8% | 73.8% | 57.6% | – | – | – | – | – | – | – | –
CCCC(C)(COC(N)=O)COC(=O)NC(C)C (centres unmarked) [Carisoprodol] | – | – | – | – | – | 92.1 % DMSO | 90.4 % DMSO | 89.3 % DMSO | – | – | – | – | activation at 2 µM [1, 7]: -33%; activation at 10 µM [1, 8]: -33%
CCCCCCNC(=O)n1cc(F)c(=O)[nH]c1=O [Carmofur] | – | – | – | – | – | – | – | – | -84.8% | 90.5% | 76.1% | 14.6% | activation at 0.4 µM [1, 9]: -28.7%
COc1ccccc1OCCNCC(O)COc1cccc2[nH]c3ccccc3c12 (centres unmarked) [Carvedilol] | – | – | – | – | – | – | – | – | -95.9% | 101% | 54.5% | 12% | activation at 0.4 µM [1, 9]: -16.1%
N[C@@H](C(=O)N[C@@H]1C(=O)N2C(C(=O)O)=C(Cl)CS[C@H]12)c1ccccc1 [Cefaclor] | -10.8% | 27.4% | 90.3% | 94.6% | 106% | – | – | – | – | – | – | – | –
N[C@@H](C(=O)N[C@@H]1C(=O)N2C(C(=O)O)=C(CSc3c[nH]nn3)CS[C@H]12)c1ccc(O)cc1 [Cefatrizine] | – | – | – | – | – | – | – | – | 11.1% | 99.1% | 95.1% | 104% | activation at 10 µM [1, 14]: -10.4%
Cc1nnc(SCC2=C(C(=O)O)N3C(=O)[C@@H](NC(=O)Cn4cnnn4)[C@H]3SC2)s1 [Cefazolin] | 6.4% | 0.95% | 95.1% | 92.5% | 96.9% | – | – | – | – | – | – | – | –
C=CC1=C(C(=O)O)N2C(=O)[C@@H](NC(=O)/C(=N\O)c3csc(N)n3)[C@H]2SC1 [Cefdinir] | 13.5% | 23% | 86.5% | 90.2% | 84.8% | – | – | – | – | – | – | – | –
C=CC1=C(C(=O)O)N2C(=O)[C@@H](NC(=O)/C(=N\OCC(=O)O)c3csc(N)n3)[C@H]2SC1 [Cefixime] | 6.6% | 63.5% | 82.1% | 68.5% | 67.3% | – | – | – | – | – | – | – | –
CO/N=C(\C(=O)N[C@@H]1C(=O)N2C(C(=O)O)=C(COC(C)=O)CS[C@H]12)c1csc(N)n1 [Cefotaxime] | – | – | – | – | – | 97.0 % DMSO | 88.3 % DMSO | 82.3 % DMSO | – | – | – | – | activation at 2 µM [1, 7]: 9.9%; activation at 10 µM [1, 8]: 8.5%
CO[C@@]1(NC(=O)Cc2cccs2)C(=O)N2C(C(=O)O)=C(COC(N)=O)CS[C@@H]21 [Cefoxitin] | 4.1% | 0.14% | – | – | – | 88.0 % DMSO | 88.0 % DMSO | 85.5 % DMSO | – | – | – | – | –
COCC1=C(C(=O)OC(C)OC(=O)OC(C)C)N2C(=O)[C@@H](NC(=O)/C(=N\OC)c3csc(N)n3)[C@H]2SC1 (some centres unmarked) [Cefpodoxime proxetil] | – | – | – | – | – | – | – | – | -7.7% | 96.9% | 90.7% | 98% | activation at 10 µM [1, 14]: -20.6%
CO/N=C(\C(=O)N[C@@H]1C(=O)N2C(C(=O)O)=C(COC(N)=O)CS[C@H]12)c1ccco1 [Cefuroxime] | – | – | – | – | – | 91.1 % DMSO | 94.9 % DMSO | 91.5 % DMSO | – | – | – | – | activation at 2 µM [1, 7]: 13.5%; activation at 10 µM [1, 8]: 13.9%
Cc1ccc(-c2cc(C(F)(F)F)nn2-c2ccc(S(N)(=O)=O)cc2)cc1 [Celecoxib] | – | – | – | – | – | 94.3 % DMSO | 89.6 % DMSO | 87.2 % DMSO | – | – | – | – | activation at 2 µM [1, 7]: 14.8%; activation at 10 µM [1, 8]: 9%
CC1=C(C(=O)O)N2C(=O)[C@@H](NC(=O)[C@H](N)c3ccccc3)[C@H]2SC1 [Cephalexin] | – | – | – | – | – | – | – | – | -1.3% | 103% | 110% | 112% | activation at 10 µM [1, 14]: -4.5%
COCc1c(C(C)C)nc(C(C)C)c(/C=C/[C@@H](O)C[C@@H](O)CC(=O)O)c1-c1ccc(F)cc1 [Cerivastatin] | – | – | – | – | – | – | – | – | -191% | 97.3% | 52.3% | 11.5% | activation at 0.4 µM [1, 9]: -38.8%
O=C(O)COCCN1CCN(C(c2ccccc2)c2ccc(Cl)cc2)CC1 (centres unmarked) [Cetirizine] | 9.7% | 9.5% | 92.3% | 89.3% | 87.4% | – | – | – | – | – | – | – | –
NC[C@H]1CC[C@H](C(=O)Oc2ccc(CCC(=O)O)cc2)CC1 [Cetraxate] | – | – | – | – | – | – | – | – | -6.2% | 103% | 92.1% | 104% | activation at 10 µM [1, 14]: -5.4%
C[C@H](CCC(=O)O)[C@H]1CC[C@H]2[C@@H]3[C@H](O)C[C@@H]4C[C@H](O)CC[C@]4(C)[C@H]3CC[C@]12C [Chenodeoxycholic Acid] | -24.3% | -7.9% | – | – | – | 111.3 % DMSO | 107.5 % DMSO | 110.8 % DMSO | – | – | – | – | –
O=C(O)CCCc1ccc(N(CCCl)CCCl)cc1 [Chlorambucil] | – | – | – | – | – | – | – | – | – | – | – | – | activation at 2 µM ([1]; read-out: 2 uM (% Quet)): -18.6%; activation at 10 µM ([1]; read-out: 10 uM (% Quet)): -105%; viability at 0.1 µM (expanded OPCs; read-out: 0.1 µM (% DMSO)): 88%; viability at 1 µM (expanded OPCs; read-out: 1 µM (% DMSO)): 80.8%; viability at 10 µM (expanded OPCs; read-out: 10 µM (% DMSO)): 57.4%
O=C(N[C@H](CO)[C@H](O)c1ccc([N+](=O)[O-])cc1)C(Cl)Cl [Chloramphenicol] | – | – | – | – | – | 87.1 % DMSO | 93.2 % DMSO | 90.9 % DMSO | – | – | – | – | activation at 2 µM [1, 7]: 9.3%; activation at 10 µM [1, 8]: 1.1%
CNC1=Nc2ccc(Cl)cc2C(c2ccccc2)=[N+]([O-])C1 [Chlordiazepoxide] | -0.9% | 23.8% | 91.2% | 93.8% | 90.6% | – | – | – | – | – | – | – | –
